From US20180000085A1, “USE OF PICOLINAMIDE COMPOUNDS WITH FUNGICIDAL ACTIVITY” (DOW AGROSCIENCES LLC, priority 2014, published 2018)

Key:
[1] = tested on: Zymoseptoria tritici; experiment: Leaf blotch of wheat (SEPTTR) disease control on wheat seedlings; format: in vivo; parameters: key to SEPTTR 1DP, HV activity at 100 ppm (% control rating) / SEPTTR 3DC, HV activity at 100 ppm (% control rating) / SEPTTR disease control, 1DP / SEPTTR disease control, 3DC / SEPTTR 1DP disease control rating, HV activity / SEPTTR 3DC disease control rating, HV activity / SEPTTR 3DC, LV activity at 125.1 g/H (% Control rating) / SEPTTR 1DP, LV activity at 125.1 g/H (% Control rating) / SEPTTR 1DP disease control rating, LV activity at 125.1 g/H / SEPTTR 3DC disease control rating, LV activity at 125.1 g/H / SEPTTR 3DC disease control rating, HV activity at 100 ppm / SEPTTR 1DP disease control rating, HV activity at 100 ppm / HV activity at 100 ppm SEPTTR 3DC (disease control rating) / HV activity at 100 ppm SEPTTR 1DP (disease control rating) / LV activity at 125.1 g/H SEPTTR 1DP (disease control rating) / LV activity at 125.1 g/H SEPTTR 3DC (disease control rating): A: > 80; B: ≤ 80; C: Not Tested; D: No Activity Observed in the Reported Assay; details: low volume application, 125.1 g/H; for SEPTTR 1DP, LV activity at 125.1 g/H (% Control rating): 1 Day Protectant; for SEPTTR 3DC, LV activity at 125.1 g/H (% Control rating): 3 Day Curative; for SEPTTR 1DP disease control rating, LV activity at 125.1 g/H: 1 day protectant; for SEPTTR 3DC disease control rating, LV activity at 125.1 g/H: 3 day curative
[2] = tested on: Puccinia triticina; experiment: Wheat brown rust (PUCCRT) disease control on wheat seedlings; format: in vivo; parameters: key to PUCCRT 3DC, HV activity at 100 ppm (% control rating) / PUCCRT disease control, 3DC / PUCCRT 1DP disease control rating, HV activity / PUCCRT 3DC disease control rating, HV activity / PUCCRT 3DC, LV activity at 125.1 g/H (% Control rating) / PUCCRT 1DP, LV activity at 125.1 g/H (% Control rating) / PUCCRT 3DC disease control rating, LV activity at 125.1 g/H / PUCCRT 1DP disease control rating, LV activity at 125.1 g/H / PUCCRT 3DC disease control rating, HV activity at 100 ppm / PUCCRT 1DP disease control rating, HV activity at 100 ppm / HV activity at 100 ppm PUCCRT 3DC (disease control rating) / LV activity at 125.1 g/H PUCCRT 1DP (disease control rating) / LV activity at 125.1 g/H PUCCRT 3DC (disease control rating): A: > 80; B: ≤ 80; C: Not Tested; D: No Activity Observed in the Reported Assay; details: low volume application, 125.1 g/H; for PUCCRT 1DP, LV activity at 125.1 g/H (% Control rating): 1 Day Protectant; for PUCCRT 3DC, LV activity at 125.1 g/H (% Control rating): 3 Day Curative; for PUCCRT 1DP disease control rating, LV activity at 125.1 g/H: 1 day protectant; for PUCCRT 3DC disease control rating, LV activity at 125.1 g/H: 3 day curative

SMILES	SEPTTR 1DP, LV activity at 125.1 g/H (% Control rating) [1]	SEPTTR 3DC, LV activity at 125.1 g/H (% Control rating) [1]	PUCCRT 1DP, LV activity at 125.1 g/H (% Control rating) [2]	PUCCRT 3DC, LV activity at 125.1 g/H (% Control rating) [2]	SEPTTR 1DP disease control rating, LV activity at 125.1 g/H [1]	SEPTTR 3DC disease control rating, LV activity at 125.1 g/H [1]	PUCCRT 1DP disease control rating, LV activity at 125.1 g/H [2]	PUCCRT 3DC disease control rating, LV activity at 125.1 g/H [2]
CCC(CC)[C@@H](Oc1ccc(-c2ccccc2)cc1)[C@H](C)OC(=O)[C@@H](NC(=O)c1nccc(OC)c1OCOC(C)=O)C(C)C [Cmpd 655]	A (> 80)	B (≤ 80)	A (> 80)	B (≤ 80)				
CCC(CC)[C@@H](Oc1ccc(F)cc1)[C@H](C)OC(=O)[C@@H](NC(=O)c1nccc(OC)c1OC(C)=O)C(C)C [Cmpd 657]	A (> 80)	B (≤ 80)	A (> 80)	B (≤ 80)				
CCC(CC)[C@@H](Oc1cccc(Cl)c1)[C@H](C)OC(=O)[C@@H](NC(=O)c1nccc(OC)c1OC(C)=O)C(C)C [Cmpd 658]					D	B (≤ 80)	A (> 80)	B (≤ 80)
CCC(CC)[C@@H](Oc1ccccc1Cl)[C@H](C)OC(=O)[C@@H](NC(=O)c1nccc(OC)c1OC(C)=O)C(C)C [Cmpd 662]					D	B (≤ 80)	A (> 80)	B (≤ 80)
CCC(CC)[C@@H](Oc1cccc(-c2ccccc2)c1)[C@H](C)OC(=O)[C@@H](NC(=O)c1nccc(OC)c1OC(C)=O)C(C)C [Cmpd 664]					D	D	A (> 80)	D
CCC(CC)[C@H](Oc1cc(F)ccc1F)[C@H](C)OC(=O)[C@H](C)NC(=O)c1nccc(OC)c1OCOC(C)=O [Cmpd 671]					D	B (≤ 80)	A (> 80)	A (> 80)
CCC(CC)[C@H](Oc1cc(F)cc(Cl)c1)[C@H](C)OC(=O)[C@H](C)NC(=O)c1nccc(OC)c1OCOC(C)=O [Cmpd 672]					A (> 80)	B (≤ 80)	A (> 80)	B (≤ 80)
CCC(CC)C(Oc1cccc(F)c1)C(C)OC(=O)C(C)NC(=O)c1nccc(OC)c1OC(C)=O (stereo not drawn) [Cmpd 673]					B (≤ 80)	A (> 80)	A (> 80)	B (≤ 80)
CCC(CC)C(Oc1ccc(Cl)cc1)C(C)OC(=O)C(C)NC(=O)c1nccc(OC)c1OC(C)=O (stereo not drawn) [Cmpd 674]					A (> 80)	A (> 80)	A (> 80)	B (≤ 80)
CCC(CC)C(Oc1ccc(Cl)cc1Cl)C(C)OC(=O)C(C)NC(=O)c1nccc(OC)c1OC(C)=O (stereo not drawn) [Cmpd 675]					A (> 80)	A (> 80)	A (> 80)	B (≤ 80)
CCC(CC)C(Oc1cc(F)cc(Cl)c1)C(C)OC(=O)C(C)NC(=O)c1nccc(OC)c1OC(C)=O (stereo not drawn) [Cmpd 677]					B (≤ 80)	B (≤ 80)	B (≤ 80)	B (≤ 80)
CC(=O)Oc1cccnc1C(=O)NC(C)C(=O)OC(C)C(Oc1ccccc1)C(C)C (stereo not drawn) [Cmpd 678]					A (> 80)	B (≤ 80)	B (≤ 80)	D
